Test results: patent US20010020013A1, “Ortho-diphenol compounds, methods and pharmaceutical compositions for inhibiting parp” (GUILFORD PHARMACEUTICALS, INC., priority 1998, published 2001)

What was measured:
[1] = tested on: human fibroblast cells lines (W138 or BJ cells); assay: Extending proliferative capacity and lifespan of cells; assay type: cell-based; settings: untreated cells stop dividing after about 40 days
Method: At the time of subdivision, the media is aspirated, and the cells rinsed with phosphate buffer saline (PBS) and then trypsinized. The cells are counted with a Coulter counter and plated at a density of 10^5 cells per cm^2 in 6-well tissue culture plates in DMEM/199 medium supplemented with 10% bovine calf serum and varying amounts ([…]: from a 100X stock solution in DMEM/M199 medium) of a PARP inhibitor of Formula I as disclosed herein. This process is repeated every 7 days until the cell appear to stop dividing. The untreated (control) cells reach senescence and stop dividing after about 40 days in culture.

[2] = tested on: C57/BL male mice; assay: Septic shock assay (LPS plus galactosamine challenge), mortality; assay type: in vivo, mouse; settings: 60, 20, 6 and 2 mg/kg daily IP for three days, first dose 30 min after challenge
Method: Groups of 10 C57/BL male mice weighing 18 to 20 g were administered a test compound, 1-carboxynaphthalene-1-carboxamide at the doses of 60, 20, 6 and 2 mg/kg, daily, by intraperitopeal (IP) injection for three consecutive days. Each animal was first challenged with lipopolysaccharide (LPS, from E. Coli, LD100 of […] IV) plus galactosamine (20 mg/animal IV). The first dose of test compound in a suitable vehicle was given 30 minutes after challenge, and the second and third doses were given 24 hours later on day 2 and day 3 respectively, with only the surviving animals receiving the second or third dose of the test compound. Mortality was recorded every 12 hours after challenge for the three-day testing period. 1-Carboxy-naphthalene-1-carboxamide provided a protection against mortality from septic shock of about 40%.

[3] = tested on: male Long-Evans rats; assay: Neuroprotective effect of DPQ on focal cerebral ischemia (distal MCA cauterization plus bilateral CCA occlusion), TTC infarct area and volume; assay type: in vivo, rat
Method: Focal cerebral ischemia was produced by cauterization of the right distal MCA (middle cerebral artery) with bilateral temporary common carotid artery occlusion in male Long-Evans rats for 90 minutes. All procedures performed on the animals were approved by the University Institutional Animal Care and Use Committee of the University of Pennsylvania. A total of 42 rats (weights: 230-340 g) obtained from Charles River were used in this study. The animals fasted overnight with free access to water prior to the surgical procedure.
Two hours prior to MCA occlusion, varying amounts (control, n=14; 5 mg/kg, n=7; 10 mg/kg, n=7; 20 mg/kg, n=7; and 40 mg/kg, n=7) of the compound, 3,4-dihydro-5-[4-(1-piperidinyl)-butoxy]-1 (2H)-isoquinolinone (“DPQ”) were dissolved in dimethyl sulfoxide (DMSO) using a sonicator. A volume of 1.28 ml/kg of the resulting solution was injected intraperitoneally into fourteen rats.
Focal cerebral ischemia was produced by cauterization of the distal portion of the right MCA with bilateral temporary common carotid artery (CCA) occlusion by the procedure of Chen et al., “A Model of Focal Ischemic Stroke in the Rat: Reproducible Extensive Cortical Infarction”, Stroke 17:738-43 (1986) and/or Liu et al., “Polyethylene Glycol-conjugated Superoxide Dismutase and Catalase Reduce Ischemic Brain Injury”, Am. J. Physiol. 256:H589-93 (1989), both of which are hereby incorporated by reference. […]
Two hours after MCA occlusion, the animals were given the same doses of the PARP inhibitor as in the pre-treatment. […] To avoid artifacts due to edema, the damaged area was calculated by subtracting the area of the normal tissue in the hemisphere ipsilateral to the stroke from the area of the hemisphere contralateral to the stroke, by the method of Swanson et al., “A Semiautomated Method for Measuring Brain Infarct Volume”, J. Cereb. […] The total volume of infarction was calculated by summation of the damaged volume of the brain slices.

NC(=O)c1cccc(N)c1 [3-amino-benzamide]
effect on lifespan of the cells ([1]; 10 μM): little or no effect
effect on lifespan of the cells ([1]; 100 μM): lengthen the lifespan of the cells
time in culture at which cells still divide ([1]; 1 mM): still divide after 60 days

NC(=O)C1(C(=O)O)CC=Cc2ccccc21 (stereo not shown) [1-Carboxy-naphthalene-1-carboxamide, 1-carboxynaphthalene-1-carboxamide]
protection against mortality from septic shock [2]: about 40%

O=C1NCCc2c(OCCCCN3CCCCC3)cccc21 [DPQ, 3,4-dihydro-5-[4-(1-piperidinyl)-butoxy]-1 (2H)-isoquinolinone]
distribution of the cross-sectional infarct area (FIG. 1 curve) ([3]; 5 mg/kg): approximately halfway between the control and the 10 mg/kg curves
distribution of the cross-sectional infarct area (FIG. 1 curve) ([3]; 20 mg/kg): approximately halfway between the control and the 10 mg/kg curves
distribution of the cross-sectional infarct area (FIG. 1 curve) ([3]; 40 mg/kg): close to the control
